From patent publication US20170190671A1, “BIS(ARYL)CATECHOL DERIVATIVES AS HERBICIDES” (E I DU PONT DE NEMOURS AND COMPANY, priority 2014, published 2017)

Key:
Assay in all cases: Test C postemergence
Type in all cases: in vivo
[1] = system: yellow nutsedge (Cyperus esculentus); conditions: Cyperus, post-emergence, 336 h, Postemergence, scale 0 to 100, read-out: Plant response rating, Nutsedge, Yellow; for pest or weed control at 31 g/ha: 31 g ai/ha; for pest or weed control at 62 g/ha: 62 g ai/ha; for pest or weed control at 125 g/ha: 125 g ai/ha
In short: (§1)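 Treatment is preemergence to seeds in a loam and sand soil, or postemergence to plants 2 to 18 cm high in a peat moss-based medium. The compound is delivered in a non-phytotoxic solvent mixture including surfactant. Effects are judged by eye 13 to 15 days later on a 0 to 100 scale.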

[2] = system: morningglory (Ipomoea coccinea); conditions: Ipomoea, post-emergence, 336 h, Postemergence, scale 0 to 100, read-out: Plant response rating, Morningglory; for pest or weed control at 31 g/ha: 31 g ai/ha; for pest or weed control at 62 g/ha: 62 g ai/ha; for pest or weed control at 125 g/ha: 125 g ai/ha
In short: as §1

[3] = system: chickweed (common chickweed, Stellaria media); conditions: Stellaria media, post-emergence, Postemergence, scale 0 to 100, read-out: Plant response rating, Chickweed; for pest or weed control at 16 g/ha: 16 g ai/ha; for pest or weed control at 31 g/ha: 31 g ai/ha; for pest or weed control at 62 g/ha: 62 g ai/ha; for pest or weed control at 125 g/ha: 125 g ai/ha
In short: as §1

[4] = system: giant foxtail (Setaria faberii); conditions: Setaria faberi, post-emergence, 336 h, Postemergence, scale 0 to 100, read-out: Plant response rating, Foxtail, Giant; for pest or weed control at 16 g/ha: 16 g ai/ha; for pest or weed control at 31 g/ha: 31 g ai/ha; for pest or weed control at 62 g/ha: 62 g ai/ha; for pest or weed control at 125 g/ha: 125 g ai/ha
In short: as §1

[5] = system: pigweed (Amaranthus retroflexus); conditions: Amaranthus retroflexus, post-emergence, 336 h, Postemergence, scale 0 to 100, read-out: Plant response rating, Pigweed; for pest or weed control at 31 g/ha: 31 g ai/ha; for pest or weed control at 62 g/ha: 62 g ai/ha; for pest or weed control at 125 g/ha: 125 g ai/ha
In short: as §1

[6] = system: Italian ryegrass (Lolium multiflorum); conditions: Lolium multiflorum, post-emergence, 336 h, Postemergence, scale 0 to 100, read-out: Plant response rating, Ryegrass, Italian; for pest or weed control at 31 g/ha: 31 g ai/ha; for pest or weed control at 62 g/ha: 62 g ai/ha; for pest or weed control at 125 g/ha: 125 g ai/ha
In short: as §1

[7] = system: winter wheat (Triticum aestivum); conditions: Triticum aestivum, post-emergence, 336 h, Postemergence, scale 0 to 100, read-out: Plant response rating, Wheat; for plant injury at 31 g/ha: 31 g ai/ha; for plant injury at 62 g/ha: 62 g ai/ha; for plant injury at 125 g/ha: 125 g ai/ha
In short: as §1

wild oat (Avena fatua) = conditions: Avena fatua, post-emergence, Postemergence, scale 0 to 100, read-out: Plant response rating, Oat, Wild; for pest or weed control at 31 g/ha: 31 g ai/ha; for pest or weed control at 62 g/ha: 62 g ai/ha; for pest or weed control at 125 g/ha: 125 g ai/ha
In short: as §1

[8] = system: velvetleaf (Abutilon theophrasti); conditions: Abutilon theophrasti, post-emergence, Postemergence, scale 0 to 100, read-out: Plant response rating, Velvetleaf; for pest or weed control at 31 g/ha: 31 g ai/ha; for pest or weed control at 62 g/ha: 62 g ai/ha; for pest or weed control at 125 g/ha: 125 g ai/ha
In short: as §1

[9] = system: johnsongrass (Sorghum halepense); conditions: Sorghum halepense, post-emergence, 336 h, Postemergence, scale 0 to 100, read-out: Plant response rating, Johnsongrass; for pest or weed control at 16 g/ha: 16 g ai/ha; for pest or weed control at 31 g/ha: 31 g ai/ha; for pest or weed control at 62 g/ha: 62 g ai/ha; for pest or weed control at 125 g/ha: 125 g ai/ha
In short: as §1

[10] = system: blackgrass (Alopecurus myosuroides); conditions: Alopecurus myosuroides, post-emergence, 336 h, Postemergence, scale 0 to 100, read-out: Plant response rating, Blackgrass; for pest or weed control at 16 g/ha: 16 g ai/ha; for pest or weed control at 31 g/ha: 31 g ai/ha; for pest or weed control at 62 g/ha: 62 g ai/ha; for pest or weed control at 125 g/ha: 125 g ai/ha
In short: as §1

[11] = system: large (Lg) crabgrass (Digitaria sanguinalis); conditions: Digitaria sanguinalis, post-emergence, 336 h, Postemergence, scale 0 to 100, read-out: Plant response rating, Crabgrass, Large; for pest or weed control at 16 g/ha: 16 g ai/ha; for pest or weed control at 31 g/ha: 31 g ai/ha; for pest or weed control at 62 g/ha: 62 g ai/ha; for pest or weed control at 125 g/ha: 125 g ai/ha
In short: as §1

[12] = system: barnyardgrass (Echinochloa crus-galli); conditions: Echinochloa crus-galli, post-emergence, Postemergence, scale 0 to 100, read-out: Plant response rating, Barnyardgrass; for pest or weed control at 16 g/ha: 16 g ai/ha; for pest or weed control at 31 g/ha: 31 g ai/ha; for pest or weed control at 62 g/ha: 62 g ai/ha; for pest or weed control at 125 g/ha: 125 g ai/ha
In short: as §1

kochia (Kochia scoparia) = conditions: Bassia scoparia, post-emergence, Postemergence, scale 0 to 100, read-out: Plant response rating, Kochia; for pest or weed control at 16 g/ha: 16 g ai/ha; for pest or weed control at 31 g/ha: 31 g ai/ha; for pest or weed control at 62 g/ha: 62 g ai/ha; for pest or weed control at 125 g/ha: 125 g ai/ha
In short: as §1

[13] = system: oilseed rape (Brassica napus); conditions: Brassica napus, post-emergence, Postemergence, scale 0 to 100, read-out: Plant response rating, Oilseed Rape; for plant injury at 31 g/ha: 31 g ai/ha; for plant injury at 62 g/ha: 62 g ai/ha; for plant injury at 125 g/ha: 125 g ai/ha
In short: as §1

`Fc1cnc(Oc2c(F)ccc(F)c2Oc2ncc(F)cn2)nc1` [Compound 29, 2,2′-[(3,6-difluoro-1,2-phenylene)bis(oxy)]bis[5-fluoropyrimidine]] showed a pest or weed control at 31 g/ha [1] of 0%, a pest or weed control at 62 g/ha [1] of 0% and a pest or weed control at 125 g/ha [1] of 0%. The pest or weed control at 31 g/ha [2] was 75%, the pest or weed control at 62 g/ha [2] was 90% and the pest or weed control at 125 g/ha [2] was 95%. The pest or weed control at 16 g/ha [3] was 45%, the pest or weed control at 31 g/ha [3] was 50% and the pest or weed control at 62 g/ha [3] was 50%. The pest or weed control at 125 g/ha [3] was 65%, the pest or weed control at 16 g/ha [4] was 0% and the pest or weed control at 31 g/ha [4] was 0%. The pest or weed control at 62 g/ha [4] was 5%, the pest or weed control at 125 g/ha [4] was 20% and the pest or weed control at 31 g/ha [5] was 90%. It also gave a pest or weed control at 62 g/ha [5] of 95%, a pest or weed control at 125 g/ha [5] of 90% and a pest or weed control at 31 g/ha [6] of 0%. It also gave a pest or weed control at 62 g/ha [6] of 35%, a pest or weed control at 125 g/ha [6] of 20% and a plant injury at 31 g/ha [7] of 0%. For the same compound, the plant injury at 62 g/ha [7] was 0%, the plant injury at 125 g/ha [7] was 0% and the pest or weed control at 31 g/ha (wild oat (Avena fatua)) was 5%. It also gave a pest or weed control at 62 g/ha (wild oat (Avena fatua)) of 30%, a pest or weed control at 125 g/ha (wild oat (Avena fatua)) of 35% and a pest or weed control at 31 g/ha [8] of 75%. It also gave a pest or weed control at 62 g/ha [8] of 75%, a pest or weed control at 125 g/ha [8] of 80% and a pest or weed control at 16 g/ha [9] of 0%. It also gave a pest or weed control at 31 g/ha [9] of 0%, a pest or weed control at 62 g/ha [9] of 20% and a pest or weed control at 125 g/ha [9] of 20%. It also gave a pest or weed control at 16 g/ha [10] of 0%, a pest or weed control at 31 g/ha [10] of 0% and a pest or weed control at 62 g/ha [10] of 5%. The pest or weed control at 125 g/ha [10] was 20%, the pest or weed control at 16 g/ha [11] was 0% and the pest or weed control at 31 g/ha [11] was 0%. It also gave a pest or weed control at 62 g/ha [11] of 5%, a pest or weed control at 125 g/ha [11] of 10% and a pest or weed control at 16 g/ha [12] of 0%. It also gave a pest or weed control at 31 g/ha [12] of 0%, a pest or weed control at 62 g/ha [12] of 5% and a pest or weed control at 125 g/ha [12] of 15%. The pest or weed control at 16 g/ha (kochia (Kochia scoparia)) was 80%, the pest or weed control at 31 g/ha (kochia (Kochia scoparia)) was 90% and the pest or weed control at 62 g/ha (kochia (Kochia scoparia)) was 90%. The pest or weed control at 125 g/ha (kochia (Kochia scoparia)) was 95%, the plant injury at 31 g/ha [13] was 60% and the plant injury at 62 g/ha [13] was 70%. The plant injury at 125 g/ha [13] was 90%.
In the case of `N#Cc1cccc(Oc2ncc(Cl)cn2)c1Oc1cnc(Cl)cn1` [Compound 32, 2-[(5-chloro-2-pyrazinyl)oxy]-3-[(5-chloro-2-pyrimidinyl)oxy]benzonitrile], the pest or weed control at 31 g/ha [1] was 20%, the pest or weed control at 62 g/ha [1] was 20% and the pest or weed control at 125 g/ha [1] was 20%. For the same compound, the pest or weed control at 31 g/ha [2] was 90%, the pest or weed control at 62 g/ha [2] was 95% and the pest or weed control at 125 g/ha [2] was 95%. It also gave a pest or weed control at 16 g/ha [3] of 70%, a pest or weed control at 31 g/ha [3] of 80% and a pest or weed control at 62 g/ha [3] of 80%. The pest or weed control at 125 g/ha [3] was 85%, the pest or weed control at 16 g/ha [4] was 20% and the pest or weed control at 31 g/ha [4] was 20%. For the same compound, the pest or weed control at 62 g/ha [4] was 15%, the pest or weed control at 125 g/ha [4] was 20% and the pest or weed control at 31 g/ha [5] was 85%. The pest or weed control at 62 g/ha [5] was 90%, the pest or weed control at 125 g/ha [5] was 95% and the pest or weed control at 31 g/ha [6] was 5%. For the same compound, the pest or weed control at 62 g/ha [6] was 10%, the pest or weed control at 125 g/ha [6] was 30% and the plant injury at 31 g/ha [7] was 0%. For the same compound, the plant injury at 62 g/ha [7] was 0%, the plant injury at 125 g/ha [7] was 0% and the pest or weed control at 31 g/ha (wild oat (Avena fatua)) was 30%. It also gave a pest or weed control at 62 g/ha (wild oat (Avena fatua)) of 30%, a pest or weed control at 125 g/ha (wild oat (Avena fatua)) of 30% and a pest or weed control at 31 g/ha [8] of 55%. For the same compound, the pest or weed control at 62 g/ha [8] was 60%, the pest or weed control at 125 g/ha [8] was 75% and the pest or weed control at 16 g/ha [9] was 10%. For the same compound, the pest or weed control at 31 g/ha [9] was 10%, the pest or weed control at 62 g/ha [9] was 10% and the pest or weed control at 125 g/ha [9] was 40%. For the same compound, the pest or weed control at 16 g/ha [10] was 5%, the pest or weed control at 31 g/ha [10] was 5% and the pest or weed control at 62 g/ha [10] was 5%. For the same compound, the pest or weed control at 125 g/ha [10] was 10%, the pest or weed control at 16 g/ha [11] was 5% and the pest or weed control at 31 g/ha [11] was 10%. For the same compound, the pest or weed control at 62 g/ha [11] was 20%, the pest or weed control at 125 g/ha [11] was 30% and the pest or weed control at 16 g/ha [12] was 10%. For the same compound, the pest or weed control at 31 g/ha [12] was 20%, the pest or weed control at 62 g/ha [12] was 20% and the pest or weed control at 125 g/ha [12] was 30%. It also gave a pest or weed control at 16 g/ha (kochia (Kochia scoparia)) of 90%, a pest or weed control at 31 g/ha (kochia (Kochia scoparia)) of 90% and a pest or weed control at 62 g/ha (kochia (Kochia scoparia)) of 90%. The pest or weed control at 125 g/ha (kochia (Kochia scoparia)) was 90%, the plant injury at 31 g/ha [13] was 80% and the plant injury at 62 g/ha [13] was 85%. For the same compound, the plant injury at 125 g/ha [13] was 85%.
